The text below walks through data of patent US20040186104A1, “Novel pyridinone and related heterocyclic derivatives” (priority 2001, published 2004).

Test [1] has as its target T1, human kappa opioid receptor (Homo sapiens, UniProt P41145).
T1 construct: expressed in transfected cells; host or cells: HEK293S KOR cells (membrane preparations)
As to the kind of experiment: Binding assay for opioid receptor transfected cell membrane in 96-well format (filtration), kappa opioid receptor. To be noted: HEK293S KOR cell membranes, radioligand 125I-(D-Pro10)-Dynorphin A (1-11), control inhibitor. The text has this:
(§1) Compounds of the invention, prepared using the general methods described above, may be tested for their ability to bind to the human kappa opioid receptor using standard procedures well known to those skilled in the art.
Binding Assay for Opioid Receptor Transfected Cell Membrane in 96-Well Format
Principle: The procedures describe how to perform and interpret receptor binding experiments designed to determine the affinities of new compounds for μ, δ and κ receptors. The total and nonspecific binding are determined in the absence and presence of selective opioid receptor radiolabeled ligand.
Procedure for Kappa Opioid Receptor:
The total and non-specific binding are determined in absence and presence of 1 μM of Asimadoline and added with the multichannel pipett in respectively well of the 96 well plate (see table 1).
The radioligand 125I-(D-pro)-Dynorphin A (1-1 1) is added containing 30 000-50 000 CPM per well.
Membranes are thawed at room temperature and diluted in assay buffer to the appropriate amount of protein, homogenized 5-10 times in glas/glas, and added to the 96 well plate.
Vortex the plate 1 minute, incubate at room temperature for 60-75 minutes, vortex 1 minute and the reaction was terminated by rapid filtration (Micro96 Harvester, Skatron Instruments, Norway) to separate bound from free ligand. […]

Test [2] concerns the target T1, human kappa opioid receptor. As to the kind of experiment: SPA binding assay for kappa-opioid receptor transfected cell membrane in 96-well format. The note with it: HEK293S KOR cell membranes, radioligand 125I-(D-Pro10)-Dynorphin A (1-11), control inhibitor.
Text: as §1
SPA Binding Assay for Kappa-Opioid Receptor Transfected Cell Membrane in 96-Well Format
Principle: Membranes containing the kappa opioid receptor are coupled to SPA beads, the ability of tested compounds to dislocate a radio ligand the protein agonist Dynorphin. (^125I-(D-Pro^10)-Dynorphin A (1-11)) are determined. Only radioaktivity in close proximity to the beads, that is bound to membranes attached to beads, will be measured.
Procedure: The total and non-specific binding are determined in absence and presence of 0.5 μM of Dynorphin, radioligand is added containing 15 000-20 000 CPM per well.
The membrane and SPA beads precouples over night (18-22 hours) in assay buffer at room temperature on a shaking platform, with rotary movement. The mixture of membrane and beads are pipetted together with the assay-buffer, agents and the radioligand into a 96-well microtiterplate.
The plate is incubated for 1 hours at room temperature, and counted in a WALLAC TRILUX MicroBeta.
Percentage inhibition is calculated for each well from the two standards, 0% and 100% inhibition.
The binding buffer, 50 mM Tris, 3 mM MgCl2, stored at +4° C. […]

T1 sequence (P41145 whole entry): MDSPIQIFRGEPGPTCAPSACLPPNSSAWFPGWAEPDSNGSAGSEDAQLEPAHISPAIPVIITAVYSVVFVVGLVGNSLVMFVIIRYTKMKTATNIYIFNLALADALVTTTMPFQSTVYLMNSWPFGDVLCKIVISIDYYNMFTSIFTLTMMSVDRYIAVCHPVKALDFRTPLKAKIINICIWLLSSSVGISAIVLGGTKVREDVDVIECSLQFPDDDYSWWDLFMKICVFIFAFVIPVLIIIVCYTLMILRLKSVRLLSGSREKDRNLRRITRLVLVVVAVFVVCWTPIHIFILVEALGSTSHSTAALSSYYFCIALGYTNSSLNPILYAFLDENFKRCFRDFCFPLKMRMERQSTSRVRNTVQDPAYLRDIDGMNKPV

As to `CN(C(=O)C(c1ccccc1)c1ccccc1)[C@H](CN1CC[C@H](O)C1)c1ccccc1` [Asimadoline], the results for the concentration for half-maximal inhibition (IC50) in test [1] and in test [2] were 4 to 10 nM and ~4 nM, respectively.
